# Experimental data published in patent US11434246B2, “EP4 antagonists” (Eisai R&D Management Co., Ltd., priority 2015, dated 2022).
# Target: EP4 (Homo sapiens, UniProt P35408)
# Assay: EP4 Antagonism by CRE-PLAP Reporter Assay (SE302 cells, PGE2-stimulated)
# Assay type: cell-based
# Set-up: HEK293 cells express endogenous EP4; endogenous in cells; host or cells: SE302 (HEK293 clone with CRE-PLAP reporter)
# Conditions: SE302 (HEK293) cells, 3 ng/mL PGE2, overnight; single or multiple assay average values
# From the text: PGE2 and [^3H]-labelled PGE2 were purchased from Cayman Chemical (Ann Arbor, Mich.) and Perkin Elmer (Waltham, Mass.), respectively. Mouse breast 4T1 cells (CRL-2539) were obtained from American Tissue Culture Collection. SE302 cell line is a clone of the HEK293 cells containing cAMP response element (CRE) promoter that when activated drives secretion of placental-like alkaline phosphatase (PLAP). HEK293 cells express endogenous EP4 and show induction of PLAP in response to PGE2 and EP4 agonists, but not EP1, 2 or 3 agonists (Chen Q, Muramoto K, Masaaki N, Ding Y, Yang H, Mackey M, Li W, Inoue Y, Ackermann K, Shrota H, Matsumoto I, Spyvee M, Schiller S, Sumida T, Gusovsky F, and Lamphier M. A novel antagonist of the prostaglandin E2 EP4 receptor inhibits Th1 differentiation and Th17 expansion and is orally active in arthritis models. British J Pharmacol, 2010, 160: 292-310). BalB/C female mice at 7-8 week age were purchased from Jackson Laboratory (Bar Harbor, Me.). Mice were maintained under specific pathogen-free conditions.
# EP4 Antagonism by CRE-PLAP Reporter Assay: SE302 cells were maintained in DMEM/F12 (50:50) (MediaTech) supplemented with 10% FBS (Tissue Culture Biologicals) plus penicillin/streptomycin. When used for assays, cells were plated in a 96-well plate at 2×10^4 cells/100 μL/well in serum-free assay medium (DMEM/F12 supplemented with 0.1% BSA plus penicillin/streptomycin) and incubated for 4-6 h. Cells were then stimulated with 3 ng/mL of PGE2 in the presence or absence of various concentrations of test compound overnight, and PLAP activity was measured by mixing 15 μL of culture supernatants with 75 μL of Lumi-phos (Lumigen, Inc.) and 60 μL of assay buffer containing 8 mmol/L MgSO4 in 0.1 mol/L carbonate-bicarbonate buffer pH11 in a new 96-well black plate and incubated for 2 h at room temperature. The intensity of luminescence, which reflected the PLAP activity in the supernatant, was quantified with an Envision 2101 Multilabel Reader. Values obtained from DMSO treated samples in the presence of PGE2 were defined as 100% of control, whereas values obtained from DMSO treated samples in the absence of PGE2 were defined as 0% of control. % of control for compound treated samples was calculated as follows: (actual reading−0% of control)/(100% of control−0% of control)×100. IC50 value for each individual experiment was calculated using GraphPad Prism 6.02 (Lake Forest, Calif.) with % of control values.
# Compounds of the present invention were assayed according to the methods as described above, and IC50 values, which may be single assay values or multiple assay average values, are summarized in Table 1. Compounds marked “ABS” show absolute stereochemistry.
# Chain of EP4 (P35408 whole entry): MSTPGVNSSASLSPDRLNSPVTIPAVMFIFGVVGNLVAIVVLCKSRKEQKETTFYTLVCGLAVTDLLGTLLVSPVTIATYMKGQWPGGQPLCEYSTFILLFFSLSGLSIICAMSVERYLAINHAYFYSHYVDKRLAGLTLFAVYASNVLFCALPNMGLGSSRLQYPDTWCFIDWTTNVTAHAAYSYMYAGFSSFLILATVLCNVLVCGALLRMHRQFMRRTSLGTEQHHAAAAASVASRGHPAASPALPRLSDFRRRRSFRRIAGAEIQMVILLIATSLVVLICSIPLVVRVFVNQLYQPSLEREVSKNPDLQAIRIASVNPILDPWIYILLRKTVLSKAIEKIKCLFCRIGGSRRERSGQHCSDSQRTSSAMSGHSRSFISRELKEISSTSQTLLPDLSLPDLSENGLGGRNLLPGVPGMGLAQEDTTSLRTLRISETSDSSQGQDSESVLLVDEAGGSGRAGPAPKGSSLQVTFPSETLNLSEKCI
row,Compound,IC50
1,"C[C@H](NC(=O)c1c(C(F)(F)F)nn2c1N(Cc1cccc(C(F)(F)F)c1)CC2)c1ccc(C(=O)NS(=O)(=O)c2ccc(N)cc2)cc1 [Compound 72, (S)—N-(1-(4-(((4-aminophenyl)sulfonyl)carbamoyl)phenyl)ethyl)-6-(trifluoromethyl)-1-(3-(trifluoromethyl)benzyl)-2,3-dihydro-1H-imidazo[1,2-b]pyrazole-7-carboxamide]",51.2 nM
2,"Cc1nn2c(c1C(=O)NC1(c3ccc(C(=O)O)cc3)CC1)N(Cc1ccc(C(F)(F)F)cc1)CC2 [Compound 28, 4-(1-(6-methyl-1-(4-(trifluoromethyl)benzyl)-2,3-dihydro-1H-imidazo[1,2-b]pyrazole-7-carboxamido)cyclopropyl)benzoic Acid]",8.68 nM
3,"C[C@H](NC(=O)c1c(C(F)(F)F)nn2c1N(Cc1ccc(C(F)(F)F)cc1)CC2)c1ccc(-c2ccoc2)cc1 [Compound 40, (S)—N-(1-(4-(furan-3-yl)phenyl)ethyl)-6-(trifluoromethyl)-1-(4-(trifluoromethyl)benzyl)-2,3-dihydro-1H-imidazo[1,2-b]pyrazole-7-carboxamide]",150 nM
4,"Cc1nn2c(c1C(=O)N[C@@H](C)c1ccc(C(=O)O)cc1)N(Cc1ccc(Cl)cc1)CC2 [Compound 32, (S)-4-(1-(1-(4-chlorobenzyl)-6-methyl-2,3-dihydro-1H-imidazo[1,2-b]pyrazole-7-carboxamido)ethyl)benzoic Acid]",4.23 nM
5,"C[C@H](NC(=O)c1c(C(F)(F)F)nn2c1N(Cc1ccc(N(C)C)cc1)CC2)c1ccc(C(=O)O)cc1 [Compound 88, (S)-4-(1-(1-(4-(dimethylamino)benzyl)-6-(trifluoromethyl)-2,3-dihydro-1H-imidazo[1,2-b]pyrazole-7-carboxamido)ethyl)benzoic Acid]",18.5 nM
6,"C[C@H](NC(=O)c1c(C(F)(F)F)nn2c1N(Cc1cccc(OC(F)(F)F)c1)CC2)c1ccc(C(=O)NS(=O)(=O)c2ccccc2)cc1 [Compound 54, (S)—N-(1-(4-((phenylsulfonyl)carbamoyl)phenyl)ethyl)-1-(3-(trifluoromethoxy)benzyl)-6-(trifluoromethyl)-2,3-dihydro-1H-imidazo[1,2-b]pyrazole-7-carboxamide]",21.6 nM
7,"Cc1nn2c(c1C(=O)NC1(c3ccc(C(=O)O)cc3)CC1)N([C@H](C)c1ccc(C(F)(F)F)cc1)CC2 [Compound 34, (R)-4-(1-(6-methyl-1-(1-(4-(trifluoromethyl)phenyl)ethyl)-2,3-dihydro-1H-imidazo[1,2-b]pyrazole-7-carboxamido)cyclopropyl)benzoic Acid]",9.19 nM
8,"C[C@H](NC(=O)c1c(C(F)(F)F)nn2c1N(Cc1ccc(CCCF)c(C(F)(F)F)c1)CC2)c1ccc(C(=O)O)cc1 [Compound 98, (S)-4-(1-(1-(4-(3-Fluoropropyl)-3-(trifluoromethyl)benzyl)-6-(trifluoromethyl)-2,3-dihydro-1H-imidazo[1,2-b]pyrazole-7-carboxamido)ethyl)benzoic Acid]",17.7 nM
9,"C[C@H](NC(=O)c1c(C(F)(F)F)nn2c1N(c1cccc(Cl)c1)CC2)c1ccc(C(=O)O)cc1 [Compound 49, (S)-4-(1-(1-(3-chlorophenyl)-6-(trifluoromethyl)-2,3-dihydro-1H-imidazo[1,2-b]pyrazole-7-carboxamido)ethyl)benzoic Acid]",100 nM
10,"C[C@H](NC(=O)c1c(C(F)(F)F)nn2c1N(Cc1ccccc1C(F)(F)F)CC2)c1ccc(C(=O)O)cc1 [Compound 4, (S)-4-(1-(6-(trifluoromethyl)-1-(2-(trifluoromethyl)benzyl)-2,3-dihydro-1H-imidazo[1,2-b]pyrazole-7-carboxamido)ethyl)benzoic Acid]",22.4 nM
11,"Cc1nn2c(c1C(=O)N[C@@H](C)c1ccc(C(=O)O)cc1)N([C@H](C)c1ccc(C(F)(F)F)cc1)CC2 [Compound 35, 4-((S)-1-(6-methyl-1-((R)-1-(4-(trifluoromethyl)phenyl)ethyl)-2,3-dihydro-1H-imidazo[1,2-b]pyrazole-7-carboxamido)ethyl)benzoic Acid]",11.1 nM
12,"C[C@H](NC(=O)c1c(C(F)(F)F)nn2c1N(Cc1cccc(C(F)(F)F)c1)CC2)c1ccc(C(=O)O)cn1 [Compound 39, (S)-6-(1-(6-(trifluoromethyl)-1-(3-(trifluoromethyl)benzyl)-2,3-dihydro-1H-imidazo[1,2-b]pyrazole-7-carboxamido)ethyl)nicotinic Acid]",4.73 nM
13,"COC(=O)c1ccc([C@H](C)NC(=O)c2c(C(F)(F)F)nn3c2N(Cc2cccc(C(F)(F)F)c2)CC3)cc1F [Compound 24, Methyl (S)-2-fluoro-4-(1-(6-(trifluoromethyl)-1-(3-(trifluoromethyl)benzyl)-2,3-dihydro-1H-imidazo[1,2-b]pyrazole-7-carboxamido)ethyl)benzoate]",8.2 nM

# Molecules with a lower IC50, results first:
row,IC50,Compound
1,0.64 nM,"C[C@H](NC(=O)c1c(C(F)(F)F)nn2c1N(Cc1cccc(C(F)(F)F)c1)C[C@H]2CO)c1ccc(C(=O)O)cc1 [Compound 83, 4-((S)-1-((S)-3-(hydroxymethyl)-6-(trifluoromethyl)-1-(3-(trifluoromethyl)benzyl)-2,3-dihydro-1H-imidazo[1,2-b]pyrazole-7-carboxamido)ethyl)benzoic Acid]"
2,0.14 nM,"C[C@H](NC(=O)c1c(C(F)(F)F)nn2c1N(Cc1cc(Cl)cc(C(F)(F)F)c1)CC2)c1ccc(C(=O)O)cc1 [Compound 6, (S)-4-(1-(1-(3-chloro-5-(trifluoromethyl)benzyl)-6-(trifluoromethyl)-2,3-dihydro-1H-imidazo[1,2-b]pyrazole-7-carboxamido)ethyl)benzoic Acid]"
3,3.91 nM,"C[C@H](NC(=O)c1c(C(F)(F)F)nn2c1N(Cc1cccc(C(F)(F)F)c1)CC2)c1ccc(C(=O)NS(=O)(=O)c2ccc(F)c(F)c2)cc1 [Compound 53, (S)—N-(1-(4-(((3,4-difluorophenyl)sulfonyl)carbamoyl)phenyl)ethyl)-6-(trifluoromethyl)-1-(3-(trifluoromethyl)benzyl)-2,3-dihydro-1H-imidazo[1,2-b]pyrazole-7-carboxamide]"
4,0.26 nM,"C[C@H](NC(=O)c1c(C(F)(F)F)nn2c1N(Cc1cccc(C(F)(F)F)c1)C[C@H]2CF)c1ccc(C(=O)O)cc1 [Compound 81, 4-((S)-1-((S)-3-(fluoromethyl)-6-(trifluoromethyl)-1-(3-(trifluoromethyl)benzyl)-2,3-dihydro-1H-imidazo[1,2-b]pyrazole-7-carboxamido)ethyl)benzoic acid]"
5,3.6 nM,"Cc1ccccc1CN1CCn2nc(C(F)(F)F)c(C(=O)N[C@@H](C)c3ccc(C(=O)O)cc3)c21 [Compound 19, (S)-4-(1-(1-(2-methylbenzyl)-6-(trifluoromethyl)-2,3-dihydro-1H-imidazo[1,2-b]pyrazole-7-carboxamido)ethyl)benzoic Acid]"
6,1.35 nM,"O=C(O)c1ccc(C2(NC(=O)c3c(C(F)(F)F)nn4c3N(Cc3ccc(Cl)cc3)CC4)CC2)cc1 [Compound 30, 4-(1-(1-(4-chlorobenzyl)-6-(trifluoromethyl)-2,3-dihydro-1H-imidazo[1,2-b]pyrazole-7-carboxamido)cyclopropyl)benzoic Acid]"
7,0.182 nM,"C[C@H](NC(=O)c1c(C(F)(F)F)nn2c1N(Cc1cc(O)cc(C(F)(F)F)c1)CC2)c1ccc(C(=O)O)cc1 [Compound 77, (S)-4-(1-(1-(3-hydroxy-5-(trifluoromethyl)benzyl)-6-(trifluoromethyl)-2,3-dihydro-1H-imidazo[1,2-b]pyrazole-7-carboxamido)ethyl)benzoic Acid]"
8,0.636 nM,"C[C@H](NC(=O)c1c(CF)nn2c1N(Cc1cccc(C(F)(F)F)c1)CC2)c1ccc(C(=O)O)cc1 [Compound 91, (S)-4-(1-(6-(Fluoromethyl)-1-(3-(trifluoromethyl)benzyl)-2,3-dihydro-1H-imidazo[1,2-b]pyrazole-7-carboxamido)ethyl)benzoic Acid]"
9,1.65 nM,"C[C@H](NC(=O)c1c(C(F)(F)F)nn2c1N(Cc1cccc(F)c1)CC2)c1ccc(C(=O)O)cc1 [Compound 15, (S)-4-(1-(1-(3-fluorobenzyl)-6-(trifluoromethyl)-2,3-dihydro-1H-imidazo[1,2-b]pyrazole-7-carboxamido)ethyl)benzoic Acid]"
